Values quoted from earlier work, collected in publication PMC8279981, “A first-in-human, phase 1 study of the NEDD8 activating enzyme E1 inhibitor TAS4464 in patients with advanced solid tumors” (Investigational New Drugs, 2021).
Read-outs that look alike come from different tables or passages of the source.

What was measured:
rats = system: rats; design: method as in PMID 27551465, PMID 22927439; conditions: cited from earlier work
patients = system: patients; design: method as in PMID 26561559, PMID 25733005, PMID 27056178, PMID 26423795; conditions: clinical trials; cited from earlier work
[1] = system: bleomycin-induced idiopathic pulmonary fibrosis models; design: method as in PMID 28469786; conditions: cited from earlier work
[2] = system: cells derived from macrophages; design: method as in PMID 22927439; conditions: cited from earlier work

## NS(=O)(=O)OC[C@@H]1C[C@@H](n2ccc3c(N[C@H]4CCc5ccccc54)ncnc32)C[C@@H]1O [MLN4924]
rats; combination of TNF-α and MLN4924
  AST, ALT, sorbitol dehydrogenase: Increases in laboratory values
rats; rats, MLN4924 administration alone
  AST, ALT, sorbitol dehydrogenase: no increases in AST, ALT, or sorbitol dehydrogenase
patients
  abnormal liver function tests (ALT and AST increased): one of the major AEs
[1]
  efficacy in pulmonary fibrosis models: efficacy in bleomycin-induced idiopathic pulmonary fibrosis models has been shown
[2]
  production of TNF-α: suppress the production of TNF-α
